Assay [1] relates to ABCA1 protein. In words: Detection of upregulation of ABCA1 protein in cells (ApoA-I binding, High Content Image Analysis). The settings on record: THP-1 macrophage cells, 24 hrs with compound. The class given is cell-based. As to the method:
Detection of upregulation of ABCA1 protein in cells
The ability of compounds of the invention to increase the level of ABCA1 protein is determined in replicate cultures of THP-1 macrophage cells in 96-well microplates. Cells are plated at an initial density of 100,000 cells/well in 100 μl medium and differentiated to adherent macrophages with the addition of PMA (100 nM) for 68 hrs in 10% fetal bovine serum, 3 μl/L of b-mercaptoethanol, RPMI-1640 medium. Then, cells are incubated with RPMI-1640 medium containing 1% FCS, 25 μg/ml acetylated LDL, for 24 hours at 37° C. Following incubation with acetylated LDL, cells are washed twice with 50 μl PBS and incubated with 100 μl of RPMI-1640 medium containing the compound of interest solubilized in DMSO for an additional 24 hrs. The final DMSO concentration in presence of cells is maintained at 0.5%. ApoA-I binding assay using High Content Image Analysis is initiated by replacing with fresh medium, RPMI without Phenol Red, 0.2% BSA containing AlexaFluor®647 labeled ApoA-I for 2 h/37° C./5% CO2. Then, cells are fixed with 4% Formaldehyde in PBS (15 min, RT). Following Nuclei are stained with Hoechst solution (3 μM PBS) and Cytoplasm with Cell Mask Blue (2 μg/ml PBS), 15 min, RT. Finally the stained cells are fixed with a second round of formaldehyde treatment. Fixed stained cells are washed and kept in PBS at 4° C. and can be read immediately until one month after preparation.
The Alexa Fluor 647-labeled Apolipoprotein A-I (20 nM) was prepared as follows: Human recombinant Apolipoprotein A-I (ApoA-I) was exchanged to a buffer of 0.02 M NaHCO3 at pH 8.2 on an NAP desalting column (GE Healthcare) and brought to a concentration to 40 μM (1.13 mg/ml) by adjustment with the same buffer. The ApoA-I was fluorescently labeled by incubation with Alexa Fluor carboxylic acid succimidyl ester (Alexa Fluor 647, Invitrogen A-20006) at a 2:1 molar ratio (Alexa to ApoA-I) for 1 h under shaking at RT. The remaining unconjugated label was removed by buffer exchange to 0.02M NaHCO3 at pH 8.2.
Imaging and data collection were performed on an OPERA confocal microplate imaging reader using a 20× water immersion objective and UV360 or 405 laser to identify the cell nuclei and a 635 laser to identify the fluorescent ApoA-I. Eight fields of view are captured per well. Image capture and analysis was performed with the Acapella software. Background fluorescence detected in control wells without ApoA-I was subtracted.
Using XLfit3 program (ID Business Solutions Ltd. UK), the model 205 for Dose Response One Site is used to calculate the EC50 values. […] Particularly, the compounds of the present invention have EC50 values in a range of 0.1 μM to 3 μM.

The target in assay [2] is T1, human CB1 receptor (Homo sapiens, UniProt P21554).
T1 construct: expressed in transfected cells; host or cells: human embryonic kidney (HEK) cells, Semliki Forest Virus system, membrane preparation
In words: CB1 receptor affinity, displacement of [3H]-CP-55,940. The class given is binding. The settings on record: HEK cell membranes, radioligand [3H]-CP-55,940. The method, then:
(§1) CB1 and CB2 Receptor Affinity
(§2) The affinity of the compounds of the invention for cannabinoid receptors was determined using membrane preparations of human embryonic kidney (HEK) cells in which the human CB1 receptor is transiently transfected using a Semliki Forest Virus system in conjunction with [3H]-CP-55,940 as radioligand. After incubation of freshly prepared cell membrane preparation with the [^3H]-ligand, with or without addition of compounds of the invention, separation of bound and free ligand was performed by filtration over glass fiber filters. Radioactivity on the filter was measured by scintillation counting.
(§3) The ability of the compounds to displace the radioligand [^3H]-CP-55,940 was measured at a concentration of 10 μM and values provided as [% inhibition @10 μM] both for the CB1 and CB2 receptor assay, The lower % inhibition is, the lower the likelihood of side effects based on CB1 or CB2 receptor inhibition is.
(Loss of bound radioactivity is the signal in a displacement assay; it reports binding, not function.)

Assay [3] addresses T2, human CB2 receptor (Homo sapiens, UniProt P34972).
T2 construct: expressed in transfected cells; host or cells: human embryonic kidney (HEK) cells, Semliki Forest Virus system, membrane preparation
In words: CB2 receptor affinity, displacement of [3H]-CP-55,940. The assay is classed as binding. The settings on record: HEK cell membranes, radioligand [3H]-CP-55,940. The method, then:
as §1
as §2, with “cannabinoid CB2” for “cannabinoid”, “CB2” for “CB1”, “[^3H]-CP-55,940” for “[3H]-CP-55,940”
as §3

Where only a bound is given, the exact number is not on record here.

T1 sequence (P21554 whole entry): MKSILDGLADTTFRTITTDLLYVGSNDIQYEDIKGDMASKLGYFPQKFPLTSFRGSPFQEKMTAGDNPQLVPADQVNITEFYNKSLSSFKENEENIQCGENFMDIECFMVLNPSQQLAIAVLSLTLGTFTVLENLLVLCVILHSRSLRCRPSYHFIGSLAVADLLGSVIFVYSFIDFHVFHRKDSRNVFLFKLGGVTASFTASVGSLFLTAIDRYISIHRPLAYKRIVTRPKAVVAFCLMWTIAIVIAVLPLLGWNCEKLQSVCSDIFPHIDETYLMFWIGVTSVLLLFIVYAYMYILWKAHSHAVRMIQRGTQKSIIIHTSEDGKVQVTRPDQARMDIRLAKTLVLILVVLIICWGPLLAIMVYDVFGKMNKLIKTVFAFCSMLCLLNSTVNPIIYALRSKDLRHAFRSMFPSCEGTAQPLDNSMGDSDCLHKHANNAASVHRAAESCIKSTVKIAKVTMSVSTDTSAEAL
T2 sequence (P34972 whole entry): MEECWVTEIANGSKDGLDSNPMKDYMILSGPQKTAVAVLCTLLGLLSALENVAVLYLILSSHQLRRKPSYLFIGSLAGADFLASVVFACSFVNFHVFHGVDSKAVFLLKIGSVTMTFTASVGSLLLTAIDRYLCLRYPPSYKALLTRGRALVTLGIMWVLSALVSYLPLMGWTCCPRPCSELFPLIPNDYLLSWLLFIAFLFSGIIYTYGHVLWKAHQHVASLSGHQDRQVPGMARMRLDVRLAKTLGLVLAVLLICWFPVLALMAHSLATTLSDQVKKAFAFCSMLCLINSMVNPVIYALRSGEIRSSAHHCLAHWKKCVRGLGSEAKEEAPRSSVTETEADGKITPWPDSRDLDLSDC

Broadly, the inhibition is the drop in the measured response relative to a control, in per cent. `COc1cncc(C(=O)Nc2cnc(OCC(F)(F)F)c(C3CCCC3)c2)c1` [Example 1, N-[5-cyclopentyl-6-(2,2,2-trifluoro-ethoxy)-pyridin-3-yl]-5-methoxy-nicotinamide]: the “% increase of ABCA1 at 3 μM” value in assay [1] was more than 45% @ 3 μM. Also, the values for the inhibition at 10 µM in assay [2] and in assay [3] were 4% and -9%, respectively.

For `Cc1cc(C(=O)Nc2cnc(OCC(F)(F)F)c(C3CCCC3)c2)[nH]n1` [Example 2, 5-methyl-2H-pyrazole-3-carboxylic acid [5-cyclopentyl-6-(2,2,2-trifluoro-ethoxy)-pyridin-3-yl]-amide], in assay [1], the “% increase of ABCA1 at 3 μM” value was more than 45% @ 3 μM. Further, the inhibition at 10 µM in assay [2] is 22%; in assay [3], -12%.

Regarding `Cc1ocnc1C(=O)Nc1cnc(OCC(F)(F)F)c(C2CCCC2)c1` [Example 3, 5-methyl-oxazole-4-carboxylic acid [5-cyclopentyl-6-(2,2,2-trifluoro-ethoxy)-pyridin-3-yl]-amide], the “% increase of ABCA1 at 3 μM” value in assay [1] is given as more than 45% @ 3 μM. Further, the inhibition at 10 µM in assay [2] came out at 26%; in assay [3], 0%.

Consider `O=C(Nc1cnc(OCC(F)(F)F)c(C2CCCC2)c1)c1cccnc1` [Example 4, N-[5-cyclopentyl-6-(2,2,2-trifluoro-ethoxy)-pyridin-3-yl]-nicotinamide], for which the “% increase of ABCA1 at 3 μM” value in assay [1] is listed as more than 45% @ 3 μM. The inhibition at 10 µM in assay [2] amounted to 34%; in assay [3] it was 2%.

As to `O=C(Nc1cnc(OCC(F)(F)F)c(C2CCCC2)c1)c1ccccn1` [Example 5, pyridine-2-carboxylic acid [5-cyclopentyl-6-(2,2,2-trifluoro-ethoxy)-pyridin-3-yl]-amide], the “% increase of ABCA1 at 3 μM” value in assay [1] is recorded as more than 45% @ 3 μM. The inhibition at 10 µM was 28% in assay [2] and -8% in assay [3].

Turning to `O=C(Nc1cnc(OCC(F)(F)F)c(C2CCCC2)c1)c1ccccc1` [Example 6, N-[5-cyclopentyl-6-(2,2,2-trifluoro-ethoxy)-pyridin-3-yl]-benzamide], the “% increase of ABCA1 at 3 μM” value in assay [1] was more than 45% @ 3 μM. The inhibition at 10 µM in assay [2] is 40%; in assay [3], -5%.

Turning to `O=C(Nc1cnc(OCC(F)(F)F)c(C2CCCC2)c1)c1cncnc1` [Example 7, pyrimidine-5-carboxylic acid [5-cyclopentyl-6-(2,2,2-trifluoro-ethoxy)-pyridin-3-yl]-amide], the “% increase of ABCA1 at 3 μM” value in assay [1] was more than 45% @ 3 μM. Moreover, the inhibition at 10 µM is 21% in assay [2] and -12% in assay [3].

For `O=C(Nc1cnc(OCC(F)(F)F)c(C2CCCCC2)c1)c1cccnc1` [Example 8, N-[5-cyclohexyl-6-(2,2,2-trifluoro-ethoxy)-pyridin-3-yl]-nicotinamide], the “% increase of ABCA1 at 3 μM” value in assay [1] was more than 45% @ 3 μM. The values for the inhibition at 10 µM in assay [2] and in assay [3] were 28% and -13%, respectively.

`Cc1cc(C(=O)Nc2cnc(OCC(F)(F)F)c(C3CCCCC3)c2)[nH]n1` [Example 9, 5-methyl-2H-pyrazole-3-carboxylic acid [5-cyclohexyl-6-(2,2,2-trifluoro-ethoxy)-pyridin-3-yl]-amide]: in assay [1], the “% increase of ABCA1 at 3 μM” value is on record as more than 45% @ 3 μM. In addition, the figures for the inhibition at 10 µM in assay [2] and in assay [3] were 27% and -9%, respectively.

Consider `Cc1ocnc1C(=O)Nc1cnc(OCC(F)(F)F)c(C2CCCCC2)c1` [Example 10, 5-methyl-oxazole-4-carboxylic acid [5-cyclohexyl-6-(2,2,2-trifluoro-ethoxy)-pyridin-3-yl]-amide], for which the “% increase of ABCA1 at 3 μM” value in assay [1] is reported as more than 45% @ 3 μM. Moreover, the inhibition at 10 µM in assay [2] is 13%; in assay [3] it was -8%.

Consider `O=C(Nc1cnc(OCC(F)(F)F)c(C2CCCCC2)c1)c1ccccn1` [Example 11, pyridine-2-carboxylic acid [5-cyclohexyl-6-(2,2,2-trifluoro-ethoxy)-pyridin-3-yl]-amide], for which the “% increase of ABCA1 at 3 μM” value in assay [1] is more than 45% @ 3 μM. Moreover, the inhibition at 10 µM in assay [2] turned out to be 33%; in assay [3] it was 3%.

For the compound `COc1cncc(C(=O)Nc2cnc(OCC(F)(F)F)c(C3CCCCC3)c2)c1` [Example 12, N-[5-cyclohexyl-6-(2,2,2-trifluoro-ethoxy)-pyridin-3-yl]-5-methoxy-nicotinamide], the “% increase of ABCA1 at 3 μM” value in assay [1] is more than 45% @ 3 μM. The inhibition at 10 µM was 19% in assay [2] and -13% in assay [3].

As for `O=C(Nc1cnc(OCC(F)(F)F)c(C2CCCCC2)c1)c1ccccc1` [Example 13, N-[5-cyclohexyl-6-(2,2,2-trifluoro-ethoxy)-pyridin-3-yl]-benzamide], in assay [1], the “% increase of ABCA1 at 3 μM” value is given as more than 45% @ 3 μM. In addition, the inhibition at 10 µM in assay [2] was 38%; in assay [3] it was -13%.
